Reference: patent US20090099094A1, “Use of Somatostatin Agonists to Treat Medullary Thyroid Carcinoma” (priority 2007, published 2009)
Blank lines part the entries; values can stand above or below the compound they belong to.

What was measured:
[1] = target: SSTR1 (Homo sapiens, UniProt P30872); assay: SSTR receptor binding affinity (Ki), SSTR1; conditions: read-out: SSTR Specificity Ki SSTR1
[2] = target: SSTR4 (Homo sapiens, UniProt P31391); assay: SSTR receptor binding affinity (Ki), SSTR4; conditions: read-out: SSTR Specificity Ki SSTR4
[3] = target: SSTR2 (Homo sapiens, UniProt P30874); assay: SSTR receptor binding affinity (Ki), SSTR2; conditions: read-out: SSTR Specificity Ki SSTR2
[4] = target: SSTR3 (Homo sapiens, UniProt P32745); assay: SSTR receptor binding affinity (Ki), SSTR3; conditions: read-out: SSTR Specificity Ki SSTR3
[5] = system: medullary thyroid carcinoma primary cultures; assay: Calcitonin secretion by MTC primary cultures (IRMA); assay type: cell-based, human; conditions: 10^−8 M, six hours
Protocol: Primary cultured cells from 18 selected MTC samples were incubated in ninety six well plates for six hours with each SSTR agonist at 10^−8 M. Control cells were treated with vehicle solution. Calcitonin levels in the conditioned medium were measured by immunoradiometric assay (IRMA) among eight replicates in the conditioned medium from treated and untreated (control) primary cultured cells. […] Data are expressed as the mean±SE percent hormone secretion inhibition vs. untreated control cells. *P<0.05 and **P<0.01 vs. control.
(§1) Tissue samples were surgically removed in accordance with the guidelines of the local comnmittees on human research. Thyroid tissue samples were obtained under sterile conditions and immediately minced in RPMI 1640 tissue culture medium. Tissues were incubated with 0.25% trypsin overnight at 4° C. and then dissociated using 0.35% collagenase (Sigma, Milano, ITALY) and 1% trypsin at 37° C. for sixty minutes. Cell suspensions were filtered through double layers of gaus(e and washed twice with serum-free F-12 Ham's Nutrient Modified Medium (F-12; Euroclone Ltd, Wetherby, UNITED KINGDOM). Tumor cells were re-suspended in F-12 with 10% fetal bovine serum and antibiotics, seeded in ninety-six well culture plates (˜2×10^4 cells/well) and incubated at 37° C. in a humidified atmosphere of 5% CO2 and 95% air according to known procedures (Zatelli, M. C. et al., Endocrinology, 2005, 146:2692-8). Approximately twenty-four hours later, the prepared cells were treated with the selected somatostatin agonist and were monitored for hormone secretion and overall viability. Informed consent of the patients was obtained for disclosing clinical investigation and performing the in vitro study.
Calcitonin levels were measured in a conditioned medium from treated and untreated primary cultured cells with the calcitonin-U.S.-IRMA® kit (Biosource Europe, Nivelles, BELGIUM) after a six hour treatment with […] of the selected somatostatin analogs. The intra- and inter-assay variation coefficients were 1.9-2.7% and 1.9-3.3%, respectively. The detection limit was 0.8 pg/ml. Hormone assays were performed in duplicate of conditioned medium from treated cells. Results were obtained by determining the mean value among eight replicates.
In order to investigate the effects of somatostatin analogs on hormone secretion, calcitonin and CgA levels were measured in conditioned media collected from primary cultures derived from the selected eighteen medullary thyroid carcinoma treated with or without each somatostatin analog at 10^−8M for six hours.
According to this criterion, […] as “responders” (group A: primary cultures #3, #5, #6, #7, #11, #12, #13, #14, #15, #16) and nine as “non responders” (group B: primary cultures #1, #2, #4, #8, #9, #10, #17, #18).

[6] = system: medullary thyroid carcinoma primary cultures; assay: Cell viability of MTC primary cultures (MTT); assay type: cell-based, human; conditions: 10^−8 M, forty-eight hours; for cell viability, change vs. control (signed, negative = reduced): group B (lanreotide non-responsive) mean
Protocol: Primary cultured cells from 18 selected MTC samples were incubated in ninety six well plates for forty eight hours with each SSTR agonist at 10^−8 M. Control cells were treated with vehicle solution. Cell viability was measured by a colorimetric method among eight replicates from treated and untreated (control) primary cultured cells. […] Data are expressed as the mean±SE percent cell viability reduction vs. untreated control cells. *P<0.05, and **P<0.01 vs. control.
as §1
The effects of the tested somatostatin analogs on medullary thyroid carcinoma primary culture cell viability were assessed with a Cell Proliferation Kit I MTT® (Roche Diagnostics GmbH, Mannheim, GERMANY) which employs a colorimetric method for determining the number of viable cells in proliferation assays. Primary cultured cells were plated in ninety-six multiwell plates (2×10^4 cells/well) and incubated for forty-eight hours in a medium supplemented with 10% fetal bovine serum in the presence or absence of each somatostatin analog at 10^−8M. Treatments were renewed after the first twenty-four hours of incubation.
In order to investigate the effects of somatostatin analogs on medullary thyroid carcinoma cell viability, an MTT assay was performed in primary cultures derived from the eighteen selected medullary thyroid carcinoma samples, treated with or without each somatostatin analog at […] for forty-eight hours. Percent cell viability reduction compared to a control in each primary culture under treatment with each somatostatin analog is reported in Table 6.

[7] = system: MTC; conditions: cited from earlier work; for suppressing calcitonin secretion: MTC, commercially available somatostatin analogs; for reducing tumour size and/or increasing patient survival rate: treatment of MTC patients
[8] = MTC primary culture #1 (non responder)
[9] = MTC primary culture #2 (non responder)
[10] = MTC primary culture #3 (responder)
[11] = MTC primary culture #4 (non responder)
[12] = MTC primary culture #5 (responder)
[13] = MTC primary culture #6 (responder)
[14] = MTC primary culture #7 (responder)
[15] = MTC primary culture #8 (non responder)
[16] = MTC primary culture #9 (non responder)
[17] = MTC primary culture #10 (non responder)
[18] = MTC primary culture #11 (responder)
[19] = MTC primary culture #12 (responder)
[20] = MTC primary culture #13 (responder)
[21] = MTC primary culture #14 (responder)
[22] = MTC primary culture #15 (responder)
[23] = MTC primary culture #16 (responder)
[24] = MTC primary culture #17 (non responder)
[25] = MTC primary culture #18 (non responder)
[26] = group A (lanreotide responsive) mean

Chain of SSTR1 (P30872 whole entry): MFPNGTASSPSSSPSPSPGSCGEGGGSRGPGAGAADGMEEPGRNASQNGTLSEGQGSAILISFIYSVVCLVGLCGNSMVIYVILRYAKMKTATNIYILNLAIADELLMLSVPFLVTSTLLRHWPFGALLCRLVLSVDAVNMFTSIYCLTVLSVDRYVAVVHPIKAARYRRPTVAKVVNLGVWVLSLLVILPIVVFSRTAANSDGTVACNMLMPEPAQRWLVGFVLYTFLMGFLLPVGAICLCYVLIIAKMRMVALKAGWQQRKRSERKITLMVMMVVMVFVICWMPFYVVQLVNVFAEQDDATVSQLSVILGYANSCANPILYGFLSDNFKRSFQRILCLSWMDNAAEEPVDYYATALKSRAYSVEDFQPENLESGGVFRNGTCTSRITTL
Chain of SSTR4 (P31391 whole entry): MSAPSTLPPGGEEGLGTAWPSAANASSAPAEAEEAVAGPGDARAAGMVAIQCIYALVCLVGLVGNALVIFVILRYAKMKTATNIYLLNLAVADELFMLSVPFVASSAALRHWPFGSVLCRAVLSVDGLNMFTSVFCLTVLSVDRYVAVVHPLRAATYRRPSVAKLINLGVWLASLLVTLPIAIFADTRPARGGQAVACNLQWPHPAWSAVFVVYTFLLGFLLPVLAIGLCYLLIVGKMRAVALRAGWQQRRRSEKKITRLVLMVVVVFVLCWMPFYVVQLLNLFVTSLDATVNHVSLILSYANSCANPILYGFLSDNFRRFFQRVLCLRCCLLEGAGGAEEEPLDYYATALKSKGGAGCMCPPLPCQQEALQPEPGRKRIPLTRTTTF
Chain of SSTR3 (P32745 whole entry): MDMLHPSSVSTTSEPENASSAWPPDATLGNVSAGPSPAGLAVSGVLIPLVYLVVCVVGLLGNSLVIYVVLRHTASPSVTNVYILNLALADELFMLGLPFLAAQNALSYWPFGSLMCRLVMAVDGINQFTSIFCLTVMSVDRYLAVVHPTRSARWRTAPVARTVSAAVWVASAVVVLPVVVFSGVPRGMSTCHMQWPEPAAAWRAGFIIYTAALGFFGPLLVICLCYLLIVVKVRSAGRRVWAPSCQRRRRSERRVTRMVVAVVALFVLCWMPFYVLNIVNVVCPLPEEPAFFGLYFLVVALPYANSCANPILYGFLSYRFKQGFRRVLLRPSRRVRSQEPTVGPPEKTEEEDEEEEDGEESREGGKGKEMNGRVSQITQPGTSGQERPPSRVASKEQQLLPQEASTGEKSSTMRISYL
Chain of SSTR2 (P30874 whole entry): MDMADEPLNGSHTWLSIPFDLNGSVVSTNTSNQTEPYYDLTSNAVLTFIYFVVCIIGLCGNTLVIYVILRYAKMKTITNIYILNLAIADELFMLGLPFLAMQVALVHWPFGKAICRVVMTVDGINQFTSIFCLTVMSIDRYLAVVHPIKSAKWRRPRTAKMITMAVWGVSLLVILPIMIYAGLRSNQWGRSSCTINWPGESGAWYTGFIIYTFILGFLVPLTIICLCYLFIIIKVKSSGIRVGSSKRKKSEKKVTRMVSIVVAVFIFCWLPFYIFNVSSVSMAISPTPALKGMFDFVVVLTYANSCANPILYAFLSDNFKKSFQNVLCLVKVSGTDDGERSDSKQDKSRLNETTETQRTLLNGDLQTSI

- Ki [1]: 4.52 µM
- Ki [2]: 6.36 µM
Compound: CC[C@@H]1NC(=O)[C@H](CCCCN)NC(=O)[C@@H](Cc2c[nH]c3ccccc23)NC(=O)[C@H](Cc2ccc(O)cc2)NC(=O)[C@@H](NC(=O)[C@@H](Cc2ccccc2)NC(=O)CN2CCN(CCO)CC2)CSSC[C@@H](C(=O)N[C@H](C(N)=O)[C@@H](C)O)NC1=O [4-(2-Hydroxyethyl)-1-piperazinylacetyl-D-Phe-c[Cys-Tyr-D-Trp-Lys-Abu-Cys]-Thr-NH2]

- Ki [3]: 0.00029 µM
- Ki [1]: 1.02 µM
- Ki [4]: 0.133 µM
- Ki [2]: > 1 µM
Compound: CC(C)[C@@H]1NC(=O)[C@H](CCCCN)NC(=O)[C@@H](Cc2c[nH]c3ccccc23)NC(=O)[C@H](Cc2ccc(O)c(I)c2)NC(=O)[C@@H](NC(=O)[C@H](N)Cc2ccccc2)CSSC[C@@H](C(=O)N[C@H](C(N)=O)[C@@H](C)O)NC1=O [Cmpd #4, D-Phe-[Cys-Tyr(I)-D-Trp-Lys-Val-Cys]-Thr-NH2]
- % CT secretion inhibition vs. control [5, 8]: −10.5%
- % CT secretion inhibition vs. control [5, 9]: 5.2%
- % CT secretion inhibition vs. control [5, 10]: −33.9%
- % CT secretion inhibition vs. control [5, 11]: −10.3%
- % CT secretion inhibition vs. control [5, 12]: −15.7%
- % CT secretion inhibition vs. control [5, 13]: −12.6%
- % CT secretion inhibition vs. control [5, 14]: −42.6%
- % CT secretion inhibition vs. control [5, 15]: 3.6%
- % CT secretion inhibition vs. control [5, 16]: −5.2%
- % CT secretion inhibition vs. control [5, 17]: 12.8%
- % CT secretion inhibition vs. control [5, 18]: −15.7%
- % CT secretion inhibition vs. control [5, 19]: −18.5%
- % CT secretion inhibition vs. control [5, 20]: −42.8%
- % CT secretion inhibition vs. control [5, 21]: 8.4%
- % CT secretion inhibition vs. control [5, 22]: −30.6%
- % CT secretion inhibition vs. control [5, 23]: −16.2%
- % CT secretion inhibition vs. control [5, 24]: 12.7%
- % CT secretion inhibition vs. control [5, 25]: 5.3%
- calcitonin secretion, change vs. control (signed, negative = reduced) [5, 26]: −25%
- calcitonin secretion, change vs. control (signed, negative = reduced) ([5]; group B (lanreotide non-responsive) mean): not reduced
- % cell viability reduction vs. control [6, 8]: −14.7%
- % cell viability reduction vs. control [6, 9]: −38.3%
- % cell viability reduction vs. control [6, 10]: 13.3%
- % cell viability reduction vs. control [6, 11]: −11.3%
- % cell viability reduction vs. control [6, 12]: 24.7%
- % cell viability reduction vs. control [6, 13]: −10.8%
- % cell viability reduction vs. control [6, 14]: 5.7%
- % cell viability reduction vs. control [6, 15]: −20.6%
- % cell viability reduction vs. control [6, 16]: −32.1%
- % cell viability reduction vs. control [6, 17]: 6.5%
- % cell viability reduction vs. control [6, 18]: 1.4%
- % cell viability reduction vs. control [6, 19]: 7.4%
- % cell viability reduction vs. control [6, 20]: 9.3%
- % cell viability reduction vs. control [6, 21]: 1.3%
- % cell viability reduction vs. control [6, 22]: 12.6%
- % cell viability reduction vs. control [6, 23]: 15.0%
- % cell viability reduction vs. control [6, 24]: −2.6%
- % cell viability reduction vs. control [6, 25]: −7.7%
- cell viability, change vs. control (signed, negative = reduced) [6]: −13%

Compound: CC(C)[C@@H]1NC(=O)[C@H](CCCCN)NC(=O)[C@@H](Cc2c[nH]c3ccccc23)NC(=O)[C@H](Cc2ccc(O)cc2)NC(=O)[C@@H](NC(=O)[C@H](N)Cc2ccc3ccccc3c2)CSSC[C@@H](C(=O)N[C@H](C(N)=O)[C@@H](C)O)NC1=O [lanreotide, D-β-Nal-c[Cys-Tyr-D-Trp-Lys-Val-Cys]-Thr-NH2, reference compound]
- Ki [1]: 2.13 µM
- Ki [4]: 0.098 µM
- suppressing calcitonin secretion [7]: lack of efficacy
- reducing tumour size and/or increasing patient survival rate [7]: little effect
- % CT secretion inhibition vs. control [5, 8]: −5.2%
- % CT secretion inhibition vs. control [5, 9]: 21.7%
- % CT secretion inhibition vs. control [5, 10]: −22.6%
- % CT secretion inhibition vs. control [5, 11]: 34.7%
- % CT secretion inhibition vs. control [5, 12]: −19.0%
- % CT secretion inhibition vs. control [5, 13]: −18.0%
- % CT secretion inhibition vs. control [5, 14]: −44.6%
- % CT secretion inhibition vs. control [5, 15]: 14.7%
- % CT secretion inhibition vs. control [5, 16]: 9.8%
- % CT secretion inhibition vs. control [5, 17]: 22.9%
- % CT secretion inhibition vs. control [5, 18]: −25.1%
- % CT secretion inhibition vs. control [5, 19]: −20.6%
- % CT secretion inhibition vs. control [5, 20]: −42.5%
- % CT secretion inhibition vs. control [5, 21]: −19.8%
- % CT secretion inhibition vs. control [5, 22]: −20.9%
- % CT secretion inhibition vs. control [5, 23]: −34.3%
- % CT secretion inhibition vs. control [5, 24]: 8.5%
- % CT secretion inhibition vs. control [5, 25]: −10.8%
- calcitonin secretion reduced / inhibited by ([5]; group A (lanreotide responders) mean): 27%
- calcitonin secretion, change vs. control (signed, negative = reduced) [5, 26]: −27%
- % cell viability reduction vs. control [6, 8]: −6.1%
- % cell viability reduction vs. control [6, 9]: −57.0%
- % cell viability reduction vs. control [6, 10]: 1.5%
- % cell viability reduction vs. control [6, 11]: −25.8%
- % cell viability reduction vs. control [6, 12]: 13.4%
- % cell viability reduction vs. control [6, 13]: 9.7%
- % cell viability reduction vs. control [6, 14]: 54.4%
- % cell viability reduction vs. control [6, 15]: −7.9%
- % cell viability reduction vs. control [6, 16]: −8.6%
- % cell viability reduction vs. control [6, 17]: 7.0%
- % cell viability reduction vs. control [6, 18]: −11.2%
- % cell viability reduction vs. control [6, 19]: 3.5%
- % cell viability reduction vs. control [6, 20]: 23.1%
- % cell viability reduction vs. control [6, 21]: 1.8%
- % cell viability reduction vs. control [6, 22]: −8.3%
- % cell viability reduction vs. control [6, 23]: −15.8%
- % cell viability reduction vs. control [6, 24]: −9.7%
- % cell viability reduction vs. control [6, 25]: −15.8%
- cell viability, change vs. control (signed, negative = reduced) [6]: −14%

Compound: C[C@@H](O)[C@@H]1NC(=O)[C@H](CCCCN)NC(=O)[C@@H](Cc2c[nH]c3ccccc23)NC(=O)[C@H](Cc2ccccc2)NC(=O)[C@@H](NC(=O)[C@H](N)Cc2ccccc2)CSSC[C@@H](C(=O)N[C@H](CO)[C@@H](C)O)NC1=O [octreotide]
- suppressing calcitonin secretion [7]: lack of efficacy
- reducing tumour size and/or increasing patient survival rate [7]: little effect
